According to patent publication US20110044938A1 (NYCOMED GMBH, priority 2006, published 2011):

What was measured:
[1] = system: RKO (RKOp27) human colon adenocarcinoma cells; assay: Alamar Blue cell viability assay, anti-proliferative/cytotoxic activity on proliferating RKO subclones; assay type: cell-based; conditions: RKOp27, 72 h, RKO p27 uninduced (proliferating) cells, value = class bound given in Table A, read-out: −logIC50 RKO p27 uninduced (proliferating) (converted)
Summary of the method: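 RKOp27 subclones (5000 cells/well) were exposed 24 h after seeding to semi-log compound dilutions in DMEM with 10% FCS, in quadruplicate, for 72 h at 37 °C. Viability was read by Alamar Blue fluorescence (544/590 nm) relative to untreated cells (1% DMSO medium). IC50 came from concentration-effect curves and is reported as −log IC50 [mol/l].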

[2] = system: subclones of RKO colon adenocarcinoma cells (RKOp27 or RKOp21) arrested by Ponasterone A; assay: Alamar Blue cell viability assay, cell cycle specific mode of action: cells arrested by ectopic p27Kip1 induced by Ponasterone A versus proliferating cells; assay type: cell-based; conditions: Homo sapiens, RKO p27 induced (arrested) cells, 10 μM Ponasterone A, 72 hours, value = class bound given in Table A, read-out: −logIC50 RKO p27 induced (arrested) (converted)
Summary of the method: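 RKOp27 or RKOp21 cells, 15000/well in DMEM/10% FCS, either arrested by p27Kip1 induced with 10 μM Ponasterone A or proliferating without inducer; compound added after 24 h, 72 h at 37° C. Alamar Blue fluorescence (544/590 nm), viability as % of untreated cells; −log IC50 reported.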

Row | IC50 [2] | Compound | IC50 [1]
1 | ≥ 100 µM | Cc1ccncc1/C=C/C(=O)Nc1sc2c(c1C#N)CCC(COC(=O)N(C)C)C2 (stereo not shown) [Example 129, Dimethyl-carbamic acid 3-cyano-2-[(E)-3-(4-methyl-pyridin-3-yl)-allanoylamino]-4,5,6,7-tetrahydro-benzo[b]thiophen-6-ylmethyl ester] | ≤ 0.501 µM
2 | ≥ 100 µM | Cc1ccncc1/C=C/C(=O)Nc1sc2c(c1C#N)CCC(COC(=O)N1CCCC1)C2 (stereo not shown) [Example 130, Pyrrolidine-1-carboxylic acid 3-cyano-2-[(E)-3-(4-methyl-pyridin-3-yl)-allanoylamino]-4,5,6,7-tetrahydro-benzo[b]thiophen-6-ylmethyl ester] | ≤ 0.501 µM
3 | ≥ 100 µM | Cc1ccncc1/C=C/C(=O)Nc1sc2c(c1C#N)CCC(COC(=O)N1CCC[C@@H](O)C1)C2 (stereo partly drawn) [Example 131, (R)-3-Hydroxy-piperidine-1-carboxylic acid 3-cyano-2-[(E)-3-(4-methyl-pyridin-3-yl)-allanoylamino]-4,5,6,7-tetrahydro-benzo[b]thiophen-6-ylmethyl ester] | ≤ 0.501 µM
4 | ≥ 100 µM | Cc1ccncc1/C=C/C(=O)Nc1sc2c(c1C#N)CCC(COC(=O)N1CC(O)C1)C2 (stereo not shown) [Example 132, 3-Hydroxy-azetidine-1-carboxylic acid 3-cyano-2-[(E)-3-(4-methyl-pyridin-3-yl)-allanoylamino]-4,5,6,7-tetrahydro-benzo[b]thiophen-6-ylmethyl ester] | 0.501 to 2 µM
5 | ≥ 100 µM | Cc1ccncc1/C=C/C(=O)Nc1sc2c(c1C#N)CCC(COC(=O)N1CCC(O)CC1)C2 (stereo not shown) [Example 133, 4-Hydroxy-piperidine-1-carboxylic acid 3-cyano-2-[(E)-3-(4-methyl-pyridin-3-yl)-allanoylamino]-4,5,6,7-tetrahydro-benzo[b]thiophen-6-ylmethyl ester] | ≤ 0.501 µM
6 | ≥ 100 µM | Cc1cc(CNC(=O)OCC2CCc3c(sc(NC(=O)/C=C/c4cnccc4C)c3C#N)C2)no1 (stereo not shown) [Example 134, (5-Methyl-isoxazol-3-ylmethyl)-carbamic acid 3-cyano-2-[(E)-3-(4-methyl-pyridin-3-yl)-allanoylamino]-4,5,6,7-tetrahydro-benzo[b]thiophen-6-ylmethyl ester] | ≤ 0.501 µM
7 | ≥ 100 µM | Cc1ccncc1/C=C/C(=O)Nc1sc2c(c1C#N)CCC(COC(=O)N1CCC[C@H]1CO)C2 (stereo partly drawn) [Example 135, 2-(S)-(Hydroxymethyl) pyrrolidine-1-carbamic acid 3-cyano-2-[(E)-3-(4-methyl-pyridin-3-yl)-allanoylamino]-4,5,6,7-tetrahydro-benzo[b]thiophen-6-ylmethyl ester] | 0.501 to 2 µM
8 | ≥ 100 µM | COC(=O)[C@@H]1CCCN1C(=O)OCC1CCc2c(sc(NC(=O)/C=C/c3cccnc3)c2C#N)C1 (stereo partly drawn) [Example 136, 2-(S)-Pyrrolidine-1,2-dicarboxylic acid 1-[3-cyano-2-((E)-3-pyridin-3-yl-allanoylamino)-4,5,6,7-tetrahydro-benzo[b]thiophen-6-ylmethyl] ester 2-methyl ester] | 0.501 to 2 µM
9 | ≥ 100 µM | CC(C)CN(C)C(=O)OCC1CCc2c(sc(NC(=O)/C=C/c3cccnc3)c2C#N)C1 (stereo not shown) [Example 137, Isobutyl-methyl-carbamic acid 3-cyano-2-((E)-3-pyridin-3-yl-allanoylamino)-4,5,6,7-tetrahydro-benzo[b]thiophen-6-ylmethyl ester] | ≤ 0.501 µM
10 | ≥ 100 µM | CN(C(=O)OCC1CCc2c(sc(NC(=O)/C=C/c3cccnc3)c2C#N)C1)C1CCCC1 (stereo not shown) [Example 138, Cyclopentyl-methyl-carbamic acid 3-cyano-2-((E)-3-pyridin-3-yl-allanoylamino)-4,5,6,7-tetrahydro-benzo[b]thiophen-6-ylmethyl ester] | 0.501 to 2 µM
11 | ≥ 100 µM | N#Cc1c(NC(=O)/C=C/c2cccnc2)sc2c1CCC(OC(=O)NC1CCC1)C2 (stereo not shown) [Example 139, Cyclobutyl-carbamic acid 3-cyano-2-((E)-3-pyridin-3-yl-allanoylamino)-4,5,6,7-tetrahydro-benzo[b]thiophen-6-yl ester] | ≤ 0.501 µM
